Reference: paper PMC8956739, “A synthetic lipopeptide targeting top-priority multidrug-resistant Gram-negative pathogens” (Nature Communications, 2022)
≈ marks a conversion by molar mass, not a printed value. Where “and” joins values, the source holds several entries; their conditions need not be identical. Equal values may be shown once. Residues, ends and D or L forms follow the SMILES beside them.

Experiments:
A. baumannii ATCC 19606 = type: cell-based, Acinetobacter baumannii; conditions: ATCC 19606
Experimental: (§1) MICs were determined in cation-adjusted Mueller–Hinton broth (CaMHB) by the broth micro-dilution method against ATCC strains and clinical isolates. MICs in the presence of Survanta® were determined as described above against P. aeruginosa ATCC 27853. In the 100 μL of fresh CaMHB containing polymyxins, 10% Survanta® (v/v, 2.5 mg/mL phospholipids) was added. MICs in the presence and absence of Survanta® were compared to determine the effect of binding to lung surfactant on the antibacterial activity of polymyxins.

A. baumannii FADDI-AB030 = type: cell-based, Acinetobacter baumannii; conditions: FADDI-AB030
Experimental: as §1

A. baumannii FADDI-AB034 = type: cell-based, Acinetobacter baumannii; conditions: FADDI-AB034
Experimental: as §1

P. aeruginosa ATCC 27853 [1] = experiment: Neutropenic mouse bloodstream infection model; type: in vivo; conditions: single IV dose 4 mg/kg; for Log10 CFU/mL blood at 4 h, Mean / Δlog10 CFU/mL blood (mean) / Log10 CFU/mL blood at 4 h, single mouse: 4 h; for Δlog10 CFU/mL blood (mean): treated minus control, mean of replicates; for Δlog10 CFU/mL blood (mean) / Log10 CFU/mL blood at 4 h, single mouse / Delta Log10 CFU/mL blood at 4 h, single mouse: 4 mg/kg; for Delta Log10 CFU/mL blood at 4 h, single mouse: treated mouse minus mean of vehicle mice
Experimental: The experimental methodology for the neutropenic mouse bloodstream infection model was described previously. Briefly, 7-week-old female Swiss mice (22–28 g) were rendered neutropenic by intraperitoneal administration of cyclophosphamide, 4 days (150 mg/kg) and 1 day (100 mg/kg) prior to inoculation. Bloodstream infection was established by intravenous administration of a 50 µL bolus of early log-phase bacterial suspension (4 × 10^8 CFU/mL). Lipopeptide solutions were prepared at 1 mg/mL (free base) in sterile saline. At 2 h after inoculation, mice (n = 3) were injected intravenously with lipopeptide solution at 4 mg/kg (free base) or saline control. At 0 and 4 h after administration, blood was collected, diluted serially in sterile saline, and plated on nutrient agar plates. Agar plates were incubated at 37 °C overnight for bacterial colony counting and the bacterial load in the blood (log10 CFU/mL) in each mouse was calculated. In vivo efficacy was calculated as the difference of the log10 CFU/mL blood values between the treated mice and the saline-treated mice at 4 h post dosing (Δlog10 CFU/mL blood = log10 [treated] CFU/mL blood − log10[control] CFU/mL blood).

[2] = tested on: P. aeruginosa FADDI-PA038; type: cell-based, Pseudomonas aeruginosa; conditions: FADDI-PA038
Experimental: as §1

[3] = tested on: P. aeruginosa FADDI-PA025; type: cell-based, Pseudomonas aeruginosa; conditions: FADDI-PA025
Experimental: as §1

P. aeruginosa ATCC 27853 [4] = type: cell-based, Pseudomonas aeruginosa; conditions: ATCC 27853
Experimental: as §1

Swiss mice, kidney = experiment: Nephrotoxicity in mice (kidney histopathology); type: in vivo, mouse; conditions: for Kidney histopathology (SQS Score): 72 mg/kg/d subcutaneously in six divided doses every 2 h, n = 3; for Kidney histopathology, mice with the SQS score: mouse, in vivo
Experimental: The experimental methodology has been previously reported by our group. Briefly, individual lipopeptide solutions were prepared in sterile saline (6 mg/mL). Swiss mice (female, 7-week-old, 22–28 g) were subcutaneously administered at 12 mg/kg in, 6 doses every 2 h to reach a total dose of 72 mg/kg (n = 3). For high-dose nephrotoxicity experiments, mice were intraperitoneally administered at 20 or 25 mg/kg, in 6 doses every 2 h to reach a total dose of 120 mg/kg (n = 6) or 150 mg/kg (n = 3). At 20 h after the last dose, the right kidney from each mouse was collected and placed in 10% buffered (pH 7.4) formalin (Sigma-Aldrich, Castle Hill, NSW, Australia). The kidneys were subjected to histological examination at the Australian Phenomics Network-Histopathology and Organ Pathology (University of Melbourne, Parkville, VIC, Australia), who was blind to the treatment groups.

[5] = tested on: K. pneumoniae FADDI-KP032; type: cell-based, Klebsiella pneumoniae; conditions: FADDI-KP032
Experimental: as §1

[6] = tested on: K. pneumoniae FADDI-KP065; type: cell-based, Klebsiella pneumoniae; conditions: FADDI-KP065
Experimental: as §1

MIC, No Survanta (P. aeruginosa ATCC 27853 [4])	SMILES	MIC A. baumannii ATCC 19606 (A. baumannii ATCC 19606)	MIC A. baumannii FADDI-AB030 (A. baumannii FADDI-AB030)	MIC A. baumannii FADDI-AB034 (A. baumannii FADDI-AB034)	Log10 CFU/mL blood at 4 h, Mean (P. aeruginosa ATCC 27853 [1])	Δlog10 CFU/mL blood (mean) (P. aeruginosa ATCC 27853 [1])	Log10 CFU/mL blood at 4 h, single mouse (P. aeruginosa ATCC 27853 [1])	Delta Log10 CFU/mL blood at 4 h, single mouse (P. aeruginosa ATCC 27853 [1])	MIC P. aeruginosa FADDI-PA038 [2]	MIC P. aeruginosa FADDI-PA025 [3]	MIC P. aeruginosa ATCC 27853 (P. aeruginosa ATCC 27853 [4])	Kidney histopathology (SQS Score) (Swiss mice, kidney)	Kidney histopathology, mice with the SQS score (Swiss mice, kidney)	MIC K. pneumoniae FADDI-KP032 [5]	MIC K. pneumoniae FADDI-KP065 [6]
–	CCCCCCCC(=O)N[C@@H](CCN)C(=O)N[C@H](C(=O)N[C@H](CCN)C(=O)N[C@H]1CCNC(=O)[C@H]([C@@H](C)O)NC(=O)[C@H](CCN)NC(=O)[C@H](CCN)NC(=O)[C@H]([C@@H](C)O)NC(=O)[C@@H](CC(C)C)NC(=O)[C@H](CCN)NC1=O)[C@@H](C)O [Lipopeptide F085] (HELM PEPTIDE1{[CCCCCCCC(=O)[*:2]].[Dab].T.[NCC[C@@H](N[*:1])C(=O)[*:2]].[Dab].[Dab].[dL].T.[Dab].[Dab].T}$PEPTIDE1,PEPTIDE1,5:R3-11:R2$$$V2.0)	1 µg/mL (≈ 0.875 µM)	0.25 µg/mL (≈ 0.219 µM)	2 µg/mL (≈ 1.75 µM)	2.97 Log10 CFU/mL blood	−2.16 log10 CFU/mL blood	3.39 Log10 CFU/mL blood and 3.30 Log10 CFU/mL blood and 2.20 Log10 CFU/mL blood	-1.73 Log10 CFU/mL blood and -1.83 Log10 CFU/mL blood and -2.92 Log10 CFU/mL blood	0.5 µg/mL (≈ 0.437 µM)	8 µg/mL (≈ 7 µM)	0.5 µg/mL (≈ 0.437 µM)	+2 (SQS + 2 = mild to moderate damage (overall score, 15 to <30))	2/2	0.25 µg/mL (≈ 0.219 µM)	<0.125 µg/mL
–	CCCCCCCC(=O)N[C@@H](CCN)C(=O)N[C@H](C(=O)N[C@@H](CCN)C(=O)N[C@H]1CCNC(=O)[C@H]([C@@H](C)O)NC(=O)[C@H](CCN)NC(=O)[C@H](CCN)NC(=O)[C@H]([C@@H](C)O)NC(=O)[C@@H](CC(C)C)NC(=O)[C@H](CCN)NC1=O)[C@@H](C)O [Lipopeptide F100] (HELM PEPTIDE1{[CCCCCCCC(=O)[*:2]].[Dab].T.[Dab].[Dab].[Dab].[dL].T.[Dab].[Dab].T}$PEPTIDE1,PEPTIDE1,5:R3-11:R2$$$V2.0)	4 µg/mL (≈ 3.5 µM)	1 µg/mL (≈ 0.875 µM)	2 µg/mL (≈ 1.75 µM)	4.44 Log10 CFU/mL blood	−3.01 log10 CFU/mL blood	4.50 Log10 CFU/mL blood and 4.28 Log10 CFU/mL blood and 4.53 Log10 CFU/mL blood	-2.95 Log10 CFU/mL blood and -3.17 Log10 CFU/mL blood and -2.91 Log10 CFU/mL blood	0.5 µg/mL (≈ 0.437 µM)	>32 µg/mL	0.5 µg/mL (≈ 0.437 µM)	0 (SQS 0 = no significant change (overall score, <1))	3/3	0.25 µg/mL (≈ 0.219 µM)	<0.125 µg/mL
4 µg/mL (≈ 3.54 µM)	CCCCCCCC(=O)N[C@@H](CCN)C(=O)N[C@H](C(=O)N[C@H](CO)C(=O)N[C@H]1CCNC(=O)[C@H]([C@@H](C)O)NC(=O)[C@H](CCN)NC(=O)[C@H](CCN)NC(=O)[C@H]([C@@H](C)O)NC(=O)[C@@H](CC(C)C)NC(=O)[C@H](CCN)NC1=O)[C@@H](C)O [Lipopeptide F183] (HELM PEPTIDE1{[CCCCCCCC(=O)[*:2]].[Dab].T.[dS].[Dab].[Dab].[dL].T.[Dab].[Dab].T}$PEPTIDE1,PEPTIDE1,5:R3-11:R2$$$V2.0)	1 µg/mL (≈ 0.885 µM)	<0.125 µg/mL	0.25 µg/mL (≈ 0.221 µM)	–	–	–	–	4 µg/mL (≈ 3.54 µM)	>32 µg/mL	4 µg/mL (≈ 3.54 µM)	0 (SQS 0 = no significant change (overall score, <1))	3/3	<0.125 µg/mL	0.25 µg/mL (≈ 0.221 µM)
